Eleven molecules from patent EP0719251B1, “BICYCLO (2.2.2) OCTANE DERIVATIVES CHOLECYSTOKININ AND/OR GASTRIN ANTAGONISTS” (JAMES BLACK FOUNDATION LIMITED, priority 1993, dated 1995) can be followed below.

The target of assay [1] is T1, CCKB receptor (Mus musculus, UniProt P56481).
T1 construct: The whole brains from male mice (CD1 22-25g; Charles River) were removed; from tissue; host or cells: cerebral cortex membranes of male CD1 mice
T1 sequence (P56481 1-453): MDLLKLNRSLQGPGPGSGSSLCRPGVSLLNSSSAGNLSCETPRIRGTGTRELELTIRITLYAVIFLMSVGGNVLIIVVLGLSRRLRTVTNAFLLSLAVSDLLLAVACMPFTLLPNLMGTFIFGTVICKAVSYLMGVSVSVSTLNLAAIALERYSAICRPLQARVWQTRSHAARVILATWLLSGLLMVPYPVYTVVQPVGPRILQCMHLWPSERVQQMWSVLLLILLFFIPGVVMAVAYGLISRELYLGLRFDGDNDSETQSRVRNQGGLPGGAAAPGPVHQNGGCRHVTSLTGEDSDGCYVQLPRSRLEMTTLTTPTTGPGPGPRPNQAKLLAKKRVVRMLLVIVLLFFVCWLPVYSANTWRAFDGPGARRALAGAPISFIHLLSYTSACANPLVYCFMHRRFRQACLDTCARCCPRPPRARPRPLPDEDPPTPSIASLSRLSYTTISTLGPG
Nature of the assay: radioligand binding assay at the CCKB receptor in mouse cortical membranes. The settings on record: [125I]-CCK8S 200pM, 150 min at 21 ± 3°C; for Ki: read-out: CCKB pKi (converted). The method, boiled down: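 Radioligand binding was quantified by gamma counting after filtration through GF/B filters and cold 50 mM Tris-HCl (pH 7.4) washes. Tissue source was male CD1 mouse cortex, homogenised and twice centrifuged, then resuspended at 2 mg.ml^-1 original wet weight in pH 7.2 HEPES buffer containing bacitracin.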

Assay [2] has as its target T2, gastrin (Rattus norvegicus, UniProt P30553).
T2 construct: The stomach was excised and flushed with ca. 1 ml of unbuffered physiological saline solution; from tissue; host or cells: isolated whole stomach of immature rats (33-50 g, ca. 21 days old)
T2 sequence (P30553 1-452): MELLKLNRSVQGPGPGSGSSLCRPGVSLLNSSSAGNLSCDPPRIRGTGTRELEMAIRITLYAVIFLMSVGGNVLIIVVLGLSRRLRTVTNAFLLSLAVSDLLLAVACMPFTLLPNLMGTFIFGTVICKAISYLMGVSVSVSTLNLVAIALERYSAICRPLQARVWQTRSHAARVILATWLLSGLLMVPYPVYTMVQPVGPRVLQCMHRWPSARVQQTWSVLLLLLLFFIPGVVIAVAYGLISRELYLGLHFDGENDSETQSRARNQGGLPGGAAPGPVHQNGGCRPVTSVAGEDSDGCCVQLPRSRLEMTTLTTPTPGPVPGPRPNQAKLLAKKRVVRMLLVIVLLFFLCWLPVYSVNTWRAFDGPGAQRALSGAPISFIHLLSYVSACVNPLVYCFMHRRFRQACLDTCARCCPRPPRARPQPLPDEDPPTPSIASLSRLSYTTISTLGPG
Nature of the assay: gastrin antagonist activity in an immature rat stomach assay. The settings on record: isolated immature rat stomach, cumulative pentagastrin dose-response curves, acid secretion; for Kb: read-out: Gastrin pKB (converted). The method, boiled down:
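Isolated stomachs from immature rats (33-50 g, ca. 21 days) perfused at 1 ml min^-1 with O2-gassed unbuffered saline, perfusate pH monitored by electrode. After 120 min stabilisation, compounds added to serosal bath; cumulative pentagastrin dose-response curves begun 60 min later.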

Assay [3] addresses T3, CCKA (Cavia porcellus, UniProt Q63931).
T3 construct: The pancreatata were removed from male guinea-pigs (200-300g; Dunkin Hartley); from tissue; host or cells: pancreas membranes of male Dunkin Hartley guinea-pigs
T3 sequence (Q63931 1-430): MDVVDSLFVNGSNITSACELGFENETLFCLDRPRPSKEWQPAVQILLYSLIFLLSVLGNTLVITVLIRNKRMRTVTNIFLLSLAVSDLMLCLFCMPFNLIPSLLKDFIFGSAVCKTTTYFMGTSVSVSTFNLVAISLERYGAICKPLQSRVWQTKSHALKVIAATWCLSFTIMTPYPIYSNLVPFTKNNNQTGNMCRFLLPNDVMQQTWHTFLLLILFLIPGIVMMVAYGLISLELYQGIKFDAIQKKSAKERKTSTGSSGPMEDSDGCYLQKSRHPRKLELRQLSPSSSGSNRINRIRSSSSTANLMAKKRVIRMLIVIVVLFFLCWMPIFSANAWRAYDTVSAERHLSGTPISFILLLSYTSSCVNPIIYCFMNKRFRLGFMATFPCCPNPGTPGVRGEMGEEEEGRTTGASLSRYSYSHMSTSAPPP
Kind of assay: CCKA binding assay in guinea-pig pancreas membranes. As to conditions: [125I]-CCK8(S) 200pM; for Ki: containing 0.375 µM PD134,308, read-out: CCKA pKi (converted); for CCKA pKi: containing 0.375 µM PD134,308. The method, then: The compounds of the examples were also tested in a CCKÅ binding assay as follows:
The pancreatata were removed from male guinea-pigs (200-300g; Dunkin Hartley) and placed in ice-cold HEPES buffer (pH 7.2 @ 21 ± 3° ). The pancreatata were homogenised in 40 ml ice-cold HEPES buffer using a polytron (Brinkmann, PT10, setting 10) 4 x 1 second.
The homogenate was centrifuged at 39,800g for 15 min at 4°. The supernatant was discarded and the pellet re-suspended using a Teflon-in-glass homogeniser in 20 volumes of fresh buffer and recentrifuged as above. The final pellet was re-suspended using a Teflon-in-glass homogeniser to a tissue concentration of 1 mg.ml^-1 (original wet weight), and filtered through 500 µm pore-size Nytex mesh.
The membranes (400µl; containing 0.375 µM PD134,308) are incubated for 150 minutes at 21 ± 3° in a final volume of 0.5ml with HEPES buffer containing [^125I]-CCK8(S) (50µl; 200pM) and competing compound. Total and non-specific binding of [^125I]-CCK8 (S) are defined using 50µl of buffer and 50µl of 100nM L-364,718 respectively. The assay is terminated by rapid filtration through pre-soaked Whatman GF/B filters using a Brandell Cell Harvester. The filters were washed (3 x 3ml) with ice-cold 50mM Tris HCl (pH 7.4 at 4° ) and bound radioactivity is determined by counting (1 min) in a gamma counter.

Consider `COc1ccc(C[C@H](NC(=O)C2C3c4ccccc4C(c4ccccc43)C2C(=O)NCC23CC4CC(CC(C4)C2)C3)C(=O)Nc2cc(C(=O)O)cc(C(=O)O)c2)cc1` (single isomer, unassigned) [Example 13, cis-7-(1S-(3,5-dicarboxyphenylaminocarbonyl) -2-(4-methoxyphenyl)ethylaminocarbonyl)-8-(1-adamantanemethylaminocarbonyl) -2,3,5,6-dibenzobicyclo[2.2.2]octane], for which the Ki in assay [1] was 501 nM; in assay [3], 2000 nM. Moreover, the Kb in assay [2] was 316 nM.

For the molecule `O=C(O)c1ccc(NC(=O)[C@H](Cc2ccccc2)NC(=O)C2C3c4ccccc4C(c4ccccc43)C2C(=O)NCC23CC4CC(CC(C4)C2)C3)cc1C(=O)O` (stereo partly drawn) [Example 43, cis-7-(1S-(3,4-dicarboxyphenylaminocarbonyl)-2-phenylethylaminocarbonyl)-8-(1-adamantanemethylaminocarbonyl)-2,3,5,6-dibenzobicyclo [2.2.2]octane], the Ki in assay [1] is 100 nM; in assay [3], 1260 nM. For the same molecule, the Kb in assay [2] was 794 nM.

With `O=C(O)c1cc(NC(=O)[C@H](Cc2ccc3ccccc3c2)NC(=O)C2C3c4ccccc4C(c4ccccc43)C2C(=O)NCC23CC4CC(CC(C4)C2)C3)cc(C(=O)O)c1` (single isomer, unassigned) [Example 15, cis-7-(1S-(3,5-dicarboxyphenylaminocarbonyl)-2-(2-naphthyl)ethylaminocarbonyl)-8-(1-adamantanemethylaminocarbonyl) -2,3,5,6-dibenzobicyclo[2.2.2]octane], the “CCKB pKi” value in assay [1] is on record as 6.7. Moreover, the “Gastrin pKB” value in assay [2] (60 min) turned out to be 5.8. Also, the “CCKA pKi” value in assay [3] is given as 7.0.

As to `O=C(O)c1cc(NC(=O)[C@H](Cc2ccc(Cl)cc2)NC(=O)C2C3c4ccccc4C(c4ccccc43)C2C(=O)NCC23CC4CC(CC(C4)C2)C3)cc(C(=O)O)c1` (single isomer, unassigned) [Example 11, cis-7-(1S-(3,5-dicarboxyphenylaminocarbonyl)-2-(4-chlorophenyl)ethylaminocarbonyl)-8-(1-adamantanemethylaminocarbonyl) -2,3,5,6-dibenzobicyclo[2.2.2]octane], the Ki in assay [1] was 251 nM; in assay [3], 50.1 nM. The Kb in assay [2] is 100 nM.

Take `O=C(O)c1cc(CNC(=O)[C@H](Cc2ccccc2)NC(=O)C2C3c4ccccc4C(c4ccccc43)C2C(=O)NCC23CC4CC(CC(C4)C2)C3)cc(C(=O)O)c1` (single isomer, unassigned) [Example 62, cis-7-(1S-(3,5-dicarboxyphenylmethylaminocarbonyl)-2-phenylethylaminocarbonyl)-8-(1-adamantanemethyl-aminocarbonyl)-2,3,5,6-dibenzobicyclo[2.2 .2]octane]: the Ki in assay [1] is 39.8 nM. Further, the Kb in assay [2] is 63.1 nM. Further, in assay [3], the “CCKA pKi” value is on record as 5.6.

In the case of `O=C(O)c1cc(NC(=O)[C@H](Cc2cccc(F)c2)NC(=O)C2C3c4ccccc4C(c4ccccc43)C2C(=O)NCC23CC4CC(CC(C4)C2)C3)cc(C(=O)O)c1` (single isomer, unassigned) [Example 19, cis-7-(1S-(3,5-dicarboxyphenylaminocarbonyl)-2-(3-fluorophenyl)ethylaminocarbonyl)-8-(1-adamantanemethylaminocarbonyl) -2,3,5,6-dibenzobicyclo[2.2.2]octane], the Ki in assay [1] is 10 nM; in assay [3] it was 398 nM. Besides, in assay [2], the Kb is 25.1 nM.

Turning to `O=C(O)c1cc(NC(=O)[C@@H](NC(=O)C2C3c4ccccc4C(c4ccccc43)C2C(=O)NCC23CC4CC(CC(C4)C2)C3)c2ccccc2)cc(C(=O)O)c1` (stereo partly drawn) [Example 39, cis-7-(1S-(3,5-dicarboxyphenylaminocarbonyl) -3-phenylmethylaminocarbonyl)-8-(1-adamantanemethylaminocarbonyl) -2,3,5,6-dibenzobicyclo[2.2.2]octane], the Ki in assay [1] is 501 nM; in assay [3] it was 2510 nM. In addition, in assay [2], the Kb was 398 nM.

Turning to `O=C(O)c1cccc(NC(=O)[C@H](Cc2ccccc2)NC(=O)C2C3c4ccccc4C(c4ccccc43)C2C(=O)NCC23CC4CC(CC(C4)C2)C3)c1` (single isomer, unassigned) [Example 40, cis-7-(1S-(3-carboxyphenylaminocarbonyl)-2-phenylethylaminocarbonyl) -8-(1-adamantanemethylaminocarbonyl)-2,3,5,6-dibenzobicyclo[2.2.2]octane], the Ki in assay [1] was 15.8 nM; in assay [3] it was 1000 nM. Moreover, in assay [2], the Kb is 2000 nM.

Consider `O=C(O)c1cc(NC(=O)[C@H](Cc2ccccc2)NC(=O)C2C3c4ccccc4C(c4ccccc43)C2C(=O)NCC23CC4CC(CC(C4)C2)C3)cc(C(=O)O)c1` (single isomer, unassigned) [Example 1, cis-7-(1S-(3,5-dicarboxyphenylamino-carbonyl) -2-phenylethylaminocarbonyl)-8-(1-adamantanemethylamino-carbonyl) -2,3,5,6-dibenzobicyclo[2.2.2] octane], for which the Ki was 1.58 nM in assay [1] and 2000 nM in assay [3]. Also, the Kb in assay [2] is 5.01 nM.

Regarding `O=C(O)c1cc(NC(=O)[C@H](Cc2ccccc2)NC(=O)C2C3c4ccccc4C(c4ccccc43)C2C(=O)NCc2ccc3ccccc3c2)cc(C(=O)O)c1` (single isomer, unassigned) [Example 64, cis-7-(1S-(3,5-dicarboxyphenylaminocarbonyl) -2-phenylethylaminocarbcnyl)-8-(2-naphthalenemethylaminocarbonyl)-2,3,5,6-dibenzobicyclo [2.2.2]octane], the Ki in assay [1] was 5.01 nM. Moreover, the Kb in assay [2] was 316 nM. The “CCKA pKi” value in assay [3] was 5.8.

Regarding `O=C(O)c1cc(NC(=O)[C@H](Cc2ccccc2)NC(=O)C2C3c4ccccc4C(c4ccccc43)C2C(=O)NCC2CCCCC2)cc(C(=O)O)c1` (single isomer, unassigned) [Example 31, cis-7-(1S-(3,5-dicarboxyphenylaminocarbonyl) -2-phenylethylaminocarbonyl)-8-(cyclohexanemethylaminocarbonyl) -2,3,5,6-dibenzobicyclo[2.2.2]octane], the Ki in assay [1] is 200 nM; in assay [3], 1260 nM. Besides, in assay [2], the Kb was 251 nM.
